Like-named read-outs stand apart in the source and are kept apart here.
What was measured:
CT26 cells = test: Tumor inhibitory effect, CT26 tumor re-excitation model; format: in vivo, mice
Method: The tumor regression of each group of mice in the CT26 anti-tumor efficacy model of the above experimental example 4 was further observed. After 30 days of the last administration, CT26 cells were inoculated subcutaneously on the back. Each mouse was inoculated with 100 μL cell suspension containing 5×10^5 cells; mice that have not been treated with drugs were used as a control group to inoculate CT26 cells in the same way. The tumor was observed and the growth of the tumor was recorded.

Sting protein [1] = biological target: T1, Sting protein (Homo sapiens, UniProt Q86WV6, G230A/H232R/R293Q/R71H); test: Agonistic function test on Sting protein: IFN-β and CXCL10 (IP10) cytokines produced by THP1 cells (ELISA); format: cell-based; settings: for EC50: 18 hours, ELISA of supernatant; for activity of stimulating IFN-β and CXCL10 (IP10) cytokines produced by THP1 cells (in words): listed compounds compared with the reference compound
T1 construct: endogenous in cells; host or cells: THP1 cells (Shanghai Cell Bank)
T1 sequence (Q86WV6 whole entry R71H/G230A/H232R/R293Q): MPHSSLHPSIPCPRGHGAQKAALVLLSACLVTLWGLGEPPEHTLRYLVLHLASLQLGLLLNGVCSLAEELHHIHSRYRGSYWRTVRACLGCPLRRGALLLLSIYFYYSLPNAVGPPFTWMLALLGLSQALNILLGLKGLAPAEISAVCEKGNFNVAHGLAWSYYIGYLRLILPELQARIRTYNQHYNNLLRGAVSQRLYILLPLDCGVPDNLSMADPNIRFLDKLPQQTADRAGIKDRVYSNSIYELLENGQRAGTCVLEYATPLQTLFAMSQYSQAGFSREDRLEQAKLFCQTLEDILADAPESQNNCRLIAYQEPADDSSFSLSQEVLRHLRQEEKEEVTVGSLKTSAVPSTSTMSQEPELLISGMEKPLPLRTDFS
Method: In this experiment, the function of sting agonist was evaluated by detecting the changes of IFN-β and CXCL10 (IP10) cytokines produced by human peripheral blood mononuclear cell line THP1 cells (Shanghai Cell Bank) stimulated by the compounds. On the first day of the experiment, the ELISA plate was coated according to the IFN-β (R&D, #DY814-05) and IP10 (BD, #550926) ELISA test kit instructions. The compound was dissolved into DMSO stock solution and diluted with culture medium to a 2× working concentration, added to a 96-well plate, 100 μL per well. The THP1 cells in the logarithmic growth phase were taken to count, and were diluted to a concentration of 2*10^6/mL, added to the above-mentioned 96-well plate containing the compounds, with […], per well, mixed well, and incubated in a 37° C., 5% CO2 incubator for 18 hours. On the second day, the above cell culture supernatant was taken, 100 μL per well, and tested according to IFN-β and IP10 ELISA test kits respectively. The OD450 value was read, and converted into IFN-β and IP10 concentration according to the standard curve, and fitted with GraphPad 5.0 to calculate the EC50 value of the dose-efficiency curve.

Sting protein [2] = biological target: Sting protein (Homo sapiens, UniProt Q86WV6); test: Binding affinity test of the compound and Sting protein by protein thermal transfer test (TSA); settings: Kd fitted from change of ΔTm with compound concentration
Sequence of Sting protein (Homo sapiens, UniProt Q86WV6) (Q86WV6 whole entry H232R, species assumed): as the sequence (Q86WV6 whole entry R71H/G230A/H232R/R293Q) above, with H71R, A230G, Q293R counted along it
Method: The protein thermal transfer test (TSA) was used to determine the binding affinity of the compound to Sting protein. The 100 ug/ml Sting protein was mixed with different concentrations of the compound and 5× SYPRO Orange dye in a buffer of 20 mM Hepes, 150 mM NaCl, 1 mM MgCl2, 1 mM DTT, pH=7.5. The protein dissolution curve was measured on a qPCR instrument, the Tm value was fitted with Protein Thermal Shift Software 1.3 software, and the Tm difference of the protein was calculated when different concentrations of compound and no compound were added. The dissociation constant Kd was fitted and obtained according to the change of ΔTm with the concentration of the compound. […] The Kd value of each compound is classified according to the following instructions: […]

Row | EC50 (Sting protein [1]; read-out: IFN-β EC50) [nM] | EC50 (Sting protein [1]; read-out: IP10 EC50) [nM] | activity of stimulating IFN-β and CXCL10 (IP10) cytokines produced by THP1 cells (in words) (Sting protein [1]) | Kd (Sting protein [2]) [µM] | SMILES | tumor curve in CT26 tumor re-excitation model (FIG. 2) (CT26 cells; 1 mg/kg) | tumor curve in CT26 tumor re-excitation model (FIG. 2) (CT26 cells; 3 mg/kg) | tumor curve in CT26 tumor re-excitation model (FIG. 2) (CT26 cells; 1.5 mg/kg) | tumor curve in CT26 tumor re-excitation model (FIG. 2) (CT26 cells; 4.5 mg/kg)
1 | 10 to 100 | 10 to 100 | comparable or even higher activity | 1 to 10 | CCc1nc(C)sc1C(=O)Nc1nc2cc(C(N)=O)cc(OC)c2n1C/C=C/Cn1c(NC(=O)c2cc(C)nn2CC)nc2cc(C(N)=O)cc(OCCCN3CCN(C4CC4)CC3)c21 [Example 15] | overlap | overlap |  | 
2 | 10 to 100 | 10 to 100 | comparable or even higher activity | 1 to 10 | CCc1nc(C)sc1C(=O)Nc1nc2cc(C(N)=O)cc(OC)c2n1C/C=C/Cn1c(NC(=O)c2cc(C)nn2CC)nc2cc(C(N)=O)cc(OCCCN3CCOCC3)c21 [Example 2, (E)-N-(5-carbamoyl-1-(4-(5-carbamoyl-2-(1-ethyl-3-methyl-1H-pyrazole-5-formylamino)-7-(3-morpholino)-1H-benzo[d]imidazol-1-yl)but-2-en-1-yl)-7-methoxy-1H-benzo[d]imidazol-2-yl)-4-ethyl-2-methylthiazole-5-formamide] |  |  | overlap | overlap
3 | 100 to 1000 | 100 to 1000 |  | 1 to 10 | CCc1nc(C)sc1C(=O)Nc1nc2cc(C(N)=O)cc(OCCCN3CCN(C)CC3)c2n1C/C=C/Cn1c(NC(=O)c2cc(C)nn2CC)nc2cc(C(N)=O)cc(OC)c21 [Example 7, (E)-N-(5-carbamoyl-1-(4-(5-carbamoyl-2-(1-ethyl-3-methyl-1H-pyrazole-5-formylamino)-7-methoxy-1H-benzo[d]imidazol-1-yl)but-2-en-1-yl)-7-(3-(4-methylpiperazin-1-yl)propoxy)-1H-benzo[d]imidazol-2-yl)-4-ethyl-2-methylthiazole-5-formylamide] |  |  |  | 
4 |  | 100 to 1000 |  | 1 to 10 | CCc1nc(C)sc1C(=O)Nc1nc2cc(C(N)=O)cc(OC)c2n1C/C=C/Cn1c(NC(=O)c2cc(C)nn2CC)nc2cc(C(N)=O)cc(OCCCN3CCN(C)CC3)c21 [Example 12] |  |  |  | 
5 | 100 to 1000 | 10 to 100 |  | 1 to 10 | CCc1nc(C)sc1C(=O)Nc1nc2cc(C(N)=O)cc(OCCCN3CCN(CC)CC3)c2n1C/C=C/Cn1c(NC(=O)c2cc(C)nn2CC)nc2cc(C(N)=O)cc(OC)c21 [Example 8] |  |  |  | 
6 | 100 to 1000 | 10 to 100 |  | 1 to 10 | CCc1nc(C)sc1C(=O)Nc1nc2cc(C(N)=O)cc(OC)c2n1C/C=C/Cn1c(NC(=O)c2cc(C)nn2CC)nc2cc(C(N)=O)cc(OCCCN3CCN(C(C)=O)CC3)c21 [Example 29] | overlap |  |  | 
7 | 100 to 1000 | 10 to 100 |  | 1 to 10 | CCc1nc(C)sc1C(=O)Nc1nc2cc(C(N)=O)cc(SC)c2n1C/C=C/Cn1c(NC(=O)c2cc(C)nn2CC)nc2cc(C(N)=O)cc(OCCCN3CCN(C)CC3)c21 [Example 20] |  |  |  | 

The next lines start with the molecule.

Row | SMILES | EC50 (Sting protein [1]; read-out: IFN-β EC50) [nM] | EC50 (Sting protein [1]; read-out: IP10 EC50) [nM] | activity of stimulating IFN-β and CXCL10 (IP10) cytokines produced by THP1 cells (in words) (Sting protein [1]) | Kd (Sting protein [2]) [µM] | tumor curve in CT26 tumor re-excitation model (FIG. 2) (CT26 cells; 1 mg/kg) | tumor curve in CT26 tumor re-excitation model (FIG. 2) (CT26 cells; 3 mg/kg) | tumor curve in CT26 tumor re-excitation model (FIG. 2) (CT26 cells; 1.5 mg/kg) | tumor curve in CT26 tumor re-excitation model (FIG. 2) (CT26 cells; 4.5 mg/kg)
8 | CCc1nc(C)sc1C(=O)Nc1nc2cc(C(N)=O)cc(OCCCN3CCN(CC)CC3)c2n1C/C=C/Cn1c(NC(=O)c2cc(C)nn2CC)nc2cc(C(N)=O)cc(SC)c21 [Example 17] | 100 to 1000 | 10 to 100 |  | 1 to 10 |  |  | overlap | 
9 | CCc1nc(C)sc1C(=O)Nc1nc2cc(C(N)=O)cc(SC)c2n1C/C=C/Cn1c(NC(=O)c2cc(C)nn2CC)nc2cc(C(N)=O)cc(OCCCN3CCOCC3)c21 [Example 5] | 10 to 100 | < 10 | comparable or even higher activity | 1 to 10 |  |  | overlap | 
10 | CCc1nc(C)sc1C(=O)Nc1nc2cc(C(N)=O)cc(OCCCN3CCOCC3)c2n1C/C=C/Cn1c(NC(=O)c2cc(C)nn2CC)nc2cc(C(N)=O)cc(SC)c21 [Example 4] | 10 to 100 | < 10 | comparable or even higher activity | 1 to 10 |  |  |  | 
11 | CCc1nc(C)sc1C(=O)Nc1nc2cc(C(N)=O)cc(OC)c2n1C/C=C/Cn1c(NC(=O)c2sc(C)nc2CC)nc2cc(C(N)=O)cc(OCCCN3CCOCC3)c21 [Example 3] | 100 to 1000 | 10 to 100 |  | 1 to 10 |  |  |  | 

Reference: patent publication US20220119379A1, “IMMUNOMODULATOR” (HITGEN INC., priority 2019, published 2022)
